Drawing on paper PMC4912623, “A CD36 ectodomain mediates insect pheromone detection via a putative tunnelling mechanism” (Nature Communications, 2016), this text covers spikes/s for one molecule.

The assay concerns the target T1, OR67d/ORCO (Drosophila melanogaster, UniProt Q9VT92).
T1 construct: endogenous receptor in OR67d olfactory neurons in vivo (wild type, or snmp1 null rescued with transgenic SNMP1); with Odorant receptor coreceptor; Sensory neuron membrane protein 1
As to the kind of experiment: single sensillum electrophysiology in flies. Format: cell-based. To be noted: v/v dilutions in paraffin oil, airstream.

T1 sequence (Q9VT92 whole entry): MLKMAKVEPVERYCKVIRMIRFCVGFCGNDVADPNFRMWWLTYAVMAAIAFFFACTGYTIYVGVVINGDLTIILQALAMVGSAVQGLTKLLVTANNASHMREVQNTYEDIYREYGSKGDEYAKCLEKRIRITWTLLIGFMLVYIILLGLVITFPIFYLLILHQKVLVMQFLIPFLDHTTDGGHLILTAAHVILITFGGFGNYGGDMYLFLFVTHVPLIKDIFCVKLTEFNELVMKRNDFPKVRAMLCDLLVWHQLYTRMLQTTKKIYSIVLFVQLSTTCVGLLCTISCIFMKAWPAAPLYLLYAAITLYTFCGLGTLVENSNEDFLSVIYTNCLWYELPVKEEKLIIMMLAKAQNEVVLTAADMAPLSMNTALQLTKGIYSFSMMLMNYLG
T1 sequence (Q9VNB5 whole entry partner): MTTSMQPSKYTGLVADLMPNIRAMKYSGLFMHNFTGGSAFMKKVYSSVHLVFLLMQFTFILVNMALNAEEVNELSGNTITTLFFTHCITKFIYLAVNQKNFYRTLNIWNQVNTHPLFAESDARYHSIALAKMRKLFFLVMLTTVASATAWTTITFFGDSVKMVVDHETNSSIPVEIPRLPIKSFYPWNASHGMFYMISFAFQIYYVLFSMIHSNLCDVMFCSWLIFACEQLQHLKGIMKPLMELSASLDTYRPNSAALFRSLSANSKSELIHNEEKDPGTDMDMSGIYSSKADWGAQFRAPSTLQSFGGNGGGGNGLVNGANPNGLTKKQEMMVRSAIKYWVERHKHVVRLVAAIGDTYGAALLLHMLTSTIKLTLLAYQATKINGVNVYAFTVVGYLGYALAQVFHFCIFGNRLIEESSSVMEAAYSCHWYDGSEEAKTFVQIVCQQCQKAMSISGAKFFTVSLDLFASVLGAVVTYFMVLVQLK
T1 sequence (Q9VDD3 whole entry partner): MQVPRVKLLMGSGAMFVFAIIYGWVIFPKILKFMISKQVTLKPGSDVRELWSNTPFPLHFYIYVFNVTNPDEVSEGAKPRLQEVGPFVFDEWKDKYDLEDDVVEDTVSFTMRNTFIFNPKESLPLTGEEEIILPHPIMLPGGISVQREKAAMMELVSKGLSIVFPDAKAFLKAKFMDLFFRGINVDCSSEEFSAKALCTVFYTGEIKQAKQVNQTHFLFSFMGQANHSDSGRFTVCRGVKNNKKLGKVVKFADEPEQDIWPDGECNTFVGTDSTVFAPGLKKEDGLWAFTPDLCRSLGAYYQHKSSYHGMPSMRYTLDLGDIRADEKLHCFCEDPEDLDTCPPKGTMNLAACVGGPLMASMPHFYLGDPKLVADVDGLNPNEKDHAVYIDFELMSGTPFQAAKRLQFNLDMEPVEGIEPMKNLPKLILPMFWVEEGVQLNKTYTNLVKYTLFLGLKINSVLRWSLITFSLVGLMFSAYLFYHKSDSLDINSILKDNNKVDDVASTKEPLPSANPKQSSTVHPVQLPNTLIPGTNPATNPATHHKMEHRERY

Take `CCCCCC/C=C\CCCCCCCCCCOC(C)=O` [cVA, (Z)-11-octadecenyl acetate]: the spikes/s result is “Concentration–response curves of OR67d neurons to cVA in the indicated rescue genotypes”.
